Measurements published in patent US20070213378A1, “Compounds for modulating cell proliferation, compositions and methods related thereto” (LymphoSign Inc., priority 2006, published 2007).

Tests used:
Assay type in all cases: cell-based
MOLT-4 = assay: Cell proliferation assay (WST-1 and/or Alamar Blue), MOLT-4; conditions: MOLT-4, human T-cell derived lymphoblastic leukemia; 72 hours incubation
Procedure: (§1) Compounds of the present invention were assayed for activity using a WST-1 cell proliferation assay and/or an Alamar Blue-based assay.
(§2) The WST-1 cell proliferation assay employed was obtained from Chemicon International, Inc. of Temecula, Calif. Further information on assay materials and procedure is provided at www.chemicon.com. The WST-1 cell proliferation assay relies on the formation of a formazan from a tetrazolium salt by cellular enzymes, whereby the amount of the obtained formazan dye as an indicator of viability is directly proportional to the number of metabolically active cells in culture.
(§3) Following 72 hours incubation of the respective cells in 50 μL/well with test compound, 10 μL of WST-1 reagent was added to each well and its contents briefly mixed. The cells were then incubated for 2 hours before absorbance of the dye was measured at 450 nm using a commercial UV/VIS microplate reader (Molecular Devices).
(§4) The Alamar Blue assay employed the CellTiter-Blue™ Cell Viability Assay from Promega Corporation of Madison, Wis. Further information on assay materials and procedure is provided at www.promega.com. The Alamar Blue-based CellTiter-Blue assay indicates cell viability by measuring the ability of cells in culture to reduce resazurin to resorufin, whereby the intensity of the fluorescence signal is directly proportional to the number of live cells. […]

OVCAR-5 = assay: Cell proliferation assay (WST-1 and/or Alamar Blue), OVCAR-5; conditions: Homo sapiens; OVCAR-5, ovarian carcinoma; 72 hours incubation
Procedure: as §1, §2, §3, §4

SK-MEL-5 = assay: Cell proliferation assay (WST-1 and/or Alamar Blue), SK-MEL-5; conditions: Homo sapiens; SK-MEL-5, malignant melanoma; 72 hours incubation
Procedure: as §1, §2, §3, §4

CCRF-CEM = assay: Cell proliferation assay (WST-1 and/or Alamar Blue), CCRF-CEM; conditions: human T-cell derived lymphoblastic leukemia, 72 hours incubation
Procedure: as §1, §2, §3, §4

786-0 = assay: Cell proliferation assay (WST-1 and/or Alamar Blue), 786-0; conditions: Homo sapiens; 786-0, renal cell adenocarcinoma; 72 hours incubation
Procedure: as §1, §2, §3, §4

SKM-1 = assay: Cell proliferation assay (WST-1 and/or Alamar Blue), SKM-1; conditions: SKM-1, human acute myeloid leukemia; 72 hours incubation
Procedure: as §1, §2, §3, §4

ACHN = assay: Cell proliferation assay (WST-1 and/or Alamar Blue), ACHN; conditions: Homo sapiens, renal cell adenocarcinoma, 72 hours incubation
Procedure: as §1, §2, §3, §4

DAOY = assay: Cell proliferation assay (WST-1 and/or Alamar Blue), DAOY; conditions: Homo sapiens, cerebellar medulloblastoma, 72 hours incubation
Procedure: as §1, §2, §3, §4

A549 = assay: Cell proliferation assay (WST-1 and/or Alamar Blue), A549; conditions: Homo sapiens; A549, lung carcinoma; 72 hours incubation
Procedure: as §1, §2, §3, §4

MDA-MB453 = assay: Cell proliferation assay (WST-1 and/or Alamar Blue), MDA-MB453; conditions: Homo sapiens, MDA-MB-453; MDA-MB453, metastatic breast carcinoma; 72 hours incubation
Procedure: as §1, §2, §3, §4

PC3 = assay: Cell proliferation assay (WST-1 and/or Alamar Blue), PC3; conditions: Homo sapiens, PC-3; PC3, prostate adenocarcinoma; 72 hours incubation
Procedure: as §1, §2, §3, §4

NCI-H460 = assay: Cell proliferation assay (WST-1 and/or Alamar Blue), NCI-H460; conditions: Homo sapiens; NCI-H460, large cell lung carcinoma; 72 hours incubation
Procedure: as §1, §2, §3, §4

SUP-B15 = assay: Cell proliferation assay (WST-1 and/or Alamar Blue), SUP-B15; conditions: SUP-B15, human B-cell derived acute lymphoblastic leukemia; 72 hours incubation
Procedure: as §1, §2, §3, §4

MCF-7 = assay: Cell proliferation assay (WST-1 and/or Alamar Blue), MCF-7; conditions: Homo sapiens, MCF7; MCF-7, epithelial mammary adenocarcinoma; 72 hours incubation
Procedure: as §1, §2, §3, §4

PANC-1 = assay: Cell proliferation assay (WST-1 and/or Alamar Blue), PANC-1; conditions: Homo sapiens; PANC-1, pancreas duct epithelial carcinoma; 72 hours incubation
Procedure: as §1, §2, §3, §4

DU145 = assay: Cell proliferation assay (WST-1 and/or Alamar Blue), DU145; conditions: Homo sapiens, DU-145; DU145, prostate carcinoma; 72 hours incubation
Procedure: as §1, §2, §3, §4

OCI-AML2 = assay: Cell proliferation assay (WST-1 and/or Alamar Blue), OCI-AML2; conditions: OCI-AML2, human acute myeloid leukemia; 72 hours incubation
Procedure: as §1, §2, §3, §4

PEER = assay: Cell proliferation assay (WST-1 and/or Alamar Blue), PEER; conditions: human T-cell derived lymphoblastic leukemia, 72 hours incubation
Procedure: as §1, §2, §3, §4

C1 = assay: Cell proliferation assay (WST-1 and/or Alamar Blue), C1; conditions: C1, human B-cell derived acute lymphoblastic leukemia; 72 hours incubation
Procedure: as §1, §2, §3, §4

SKOV-3 = assay: Cell proliferation assay (WST-1 and/or Alamar Blue), SKOV-3; conditions: Homo sapiens, SK-OV-3; SKOV-3, ovarian adenocarcinoma; 72 hours incubation
Procedure: as §1, §2, §3, §4

MV4-11 = assay: Cell proliferation assay (WST-1 and/or Alamar Blue), MV4-11; conditions: MV4-11, human acute myelo-monocytic leukemia; 72 hours incubation
Procedure: as §1, §2, §3, §4

MiaPACA-2 = assay: Cell proliferation assay (WST-1 and/or Alamar Blue), MiaPACA-2; conditions: Homo sapiens, MIA PaCa-2; MiaPACA-2, pancreas carcinoma; 72 hours incubation
Procedure: as §1, §2, §3, §4

HCT-116 = assay: Cell proliferation assay (WST-1 and/or Alamar Blue), HCT-116; conditions: Homo sapiens; HCT-116, colorectal carcinoma; 72 hours incubation
Procedure: as §1, §2, §3, §4

KASUMI-1 = assay: Cell proliferation assay (WST-1 and/or Alamar Blue), KASUMI-1; conditions: KASUMI-1, human acute myeloid leukemia; 72 hours incubation
Procedure: as §1, §2, §3, §4

MOLM-13 = assay: Cell proliferation assay (WST-1 and/or Alamar Blue), MOLM-13; conditions: MOLM-13, human acute myeloid leukemia; 72 hours incubation
Procedure: as §1, §2, §3, §4

RS4-11 = assay: Cell proliferation assay (WST-1 and/or Alamar Blue), RS4-11; conditions: RS4-11, human B-cell derived acute lymphoblastic leukemia; 72 hours incubation
Procedure: as §1, §2, §3, §4

- IC50 (MOLT-4): 0.34 µM
- IC50 (OVCAR-5): 6.65 µM
- IC50 (SK-MEL-5): 2.39 µM
- IC50 (CCRF-CEM): 0.97 µM
- IC50 (786-0): 4.34 µM
- IC50 (SKM-1): 0.6 µM
- IC50 (ACHN): 5 µM
- IC50 (A549): 19.1 µM
- IC50 (MDA-MB453): 1.71 µM
- IC50 (PC3): 2.35 µM
- IC50 (NCI-H460): 2.32 µM
- IC50 (MCF-7): > 20 µM
- IC50 (PANC-1): > 20 µM
- IC50 (DU145): 6.14 µM
- IC50 (OCI-AML2): 0.35 µM
- IC50 (SKOV-3): 3.5 µM
- IC50 (MV4-11): 0.93 µM
- IC50 (MiaPACA-2): 3.36 µM
- IC50 (HCT-116): 17.3 µM
- IC50 (MOLM-13): 0.83 µM
- IC50 (RS4-11): 0.13 µM
Structure (SMILES): CC(C)C(=O)Nc1cccc(C(=O)Nc2nnc(CCc3ccccc3)s2)c1 [Compound A]
- IC50 (DAOY): 2.7 µM
- IC50 (SUP-B15): 4.82 µM
- IC50 (PEER): > 20 µM
- IC50 (C1): 0.57 µM
- IC50 (KASUMI-1): ≥ 20 µM
